According to US6531604B2, “Benzothiepine derivatives, their production and use” (Takeda Chemical Industries, Ltd., priority 1998, dated 2003):

Test system: interstitial cells prepared from the femur bone marrow of a normal rat
Experiment: Osteogenesis promoting effect: alkaline phosphatase activity in cultured rat bone marrow interstitial cells
Type: cell-based
Conditions: test compound 10^−5 M, added from 2nd day of culture, cultured additional 5 days; mean ± S.E. (n = 4); control 0.150 ± 0.009; ** p < 0.01 vs control
Experimental: Osteogenesis promoting effect:
Using the interstitial cells prepared from the femur bone marrow of a normal rat, an alkaline phosphatase activity was measured as an index of osteogenesis. Briefly, according to the method of Maniatopoulos et al. [Cell Tissue Research, volume 254, P.317 (1988)], the interstitial cells were prepared from the femur bone of a Sprague-Dawley male rat, 7 weeks of age, and cultured in an α-MEM (minimum essential medium) solution containing dexamethasone (10^−7M) and β-glycerophosphoric acid (10^−2M) in order to generate calcified bony tissue. One week later, the confluent primary cells were treated with 0.25% trypsin-0.2% EDTA solution, recovered, and subcultured on a culture plate at a cell density of […], (culture day 0). From the 2nd day of the culture, a test compound (10^−5 M) was added to the above culture solution, and cultured for additional 5 days. The cells were washed with a phosphate buffer, and after addition of 0.2% Nonidet P-40, they were homogenized and centrifuged at 3,000 rpm for 10 minutes. The supernatant was measured for an alkaline phosphatase activity according to the method of Lowry et al. [Journal of Biological Chemistry, volume 207, P.19 (1954)]. […] Statistical analysis was performed by means of the Student's t-test.

Question: Which “Alkaline phosphatase activity (A405)” value does the source give for `C[C@@H]1S[C@@H](C(=O)Nc2ccc(CC3SC(=O)NC3=O)cc2)Cc2cc3c(cc2C1=O)OCO3` (stereo partly drawn) [Example no. 1, (2R,4S)-N-[4-(2,4-Dioxothiazolidin-5-yl-methyl)phenyl]-1,2,4,5-tetrahydro-7,8-methylenedioxy-4-methyl-5-oxo-3-benzothiepine-2-carboxamide] here?
Answer: The value was 0.489 ± 0.050** A405.

Question: For `C[C@@H]1S[C@@H](C(=O)Nc2ccc(CN3CCOCC3)cc2)Cc2cc3c(cc2C1=O)OCO3` [Example no. 4, (2R,4S)-N-[4-(4-Morpholinylmethyl)phenyl]-1,2,4,5-tetrahydro-7,8-methylenedioxy-4-methyl-5-oxo-3-benzothiepine-2-carboxamide], which “Alkaline phosphatase activity (A405)” value is on record?
Answer: Its value is 0.394 ± 0.036** A405.

Question: For `C[C@@H]1S[C@@H](C(=O)Nc2ccc(CC3OC(=O)NC3=O)cc2)Cc2cc3c(cc2C1=O)OCO3` (stereo partly drawn) [Example no. 10, (2R,4S)-N-[4-(2,4-Dioxo-oxazolidin-5-yl-methyl)phenyl]-1,2,4,5-tetrahydro-7,8-methylenedioxy-4-methyl-5-oxo-3-benzothiepine-2-carboxamide], which “Alkaline phosphatase activity (A405)” value is on record?
Answer: The value was 0.535 ± 0.069** A405.

Question: For `C[C@@H]1S[C@@H](C(=O)Nc2ccc(Cn3oc(=O)[nH]c3=O)cc2)Cc2cc3c(cc2C1=O)OCO3` [Example no. 11, (2R,4S)-N-[4-(3,5-Dioxo-1,2,4-oxadiazolidin-2-ylmethyl)phenyl]-1,2,4,5-tetrahydro-7,8-methylenedioxy-4-methyl-5-oxo-3-benzothiepine-2-carboxamide], which “Alkaline phosphatase activity (A405)” value is on record?
Answer: Its value is 0.399 ± 0.069** A405.
